Data as given in US8648066B2 (Exelixis, Inc., priority 2009, dated 2014).

biological target: mTOR/GbL/Raptor (mTORC1) (Homo sapiens, UniProt P42345); assay: mTOR/GbL/Raptor (mTORC1) ELISA assay; type: biochemical; settings: phosphorylation of 4E-BP1; 0.2 nM mTORC1, 10 μM ATP; read-out: IC50 in this assay (mTORC1 ELISA)
Outline: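 ELISA read-out: phospho-4E-BP1 captured on Ni-chelate plates and detected with anti-phospho antibody plus HRP-anti-IgG luminescence. The kinase step ran 120 min at ambient temperature with 0.2 nM human mTORC1, 10 µM ATP, 50 nM His-4E-BP1, 10 mM MnCl2, pH 7.2 HEPES.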

SMILES | IC50 [µM]
Cc1ncnc(N2CCOc3ccc(-c4ccc(N)nn4)cc3C2)c1Cc1ccc(F)cc1 [Example 149, 6-(4-{5-[(4-fluorophenyl)methyl]-6-methylpyrimidin-4-yl}-2,3,4,5-tetrahydro-1,4-benzoxazepin-7-yl)pyridazin-3-amine] | 0.05 to 0.25
Cc1ncnc(N2CCOc3ccc(-c4ccc(C(=O)NC5CC5)cc4)cc3C2)c1Cc1ccc(F)cc1 [Example 172, N-cyclopropyl-4-(4-{5-[(4-fluorophenyl)methyl]-6-methylpyrimidin-4-yl}-2,3,4,5-tetrahydro-1,4-benzoxazepin-7-yl)benzamide] | 0.05 to 0.25
CC1(C)CCc2ncnc(N3CCOc4ccc(-c5cnc(N)c(S(=O)(=O)N[C@H]6CC[C@H](N)CC6)c5)cc4C3)c2C1 [Example 416, 2-amino-N-(trans-4-aminocyclohexyl)-5-[4-(6,6-dimethyl-5,6,7,8-tetrahydroquinazolin-4-yl)-2,3,4,5-tetrahydro-1,4-benzoxazepin-7-yl]pyridine-3-sulfonamide] | 0.05 to 0.25
CN(C)Cc1nc2c(c(N3CCOc4ccc(-c5ccc6scnc6c5)cc4C3)n1)CC(C)(C)CC2 [Example 337, 1-{4-[7-(1,3-benzothiazol-5-yl)-2,3-dihydro-1,4-benzoxazepin-4(5H)-yl]-6,6-dimethyl-5,6,7,8-tetrahydroquinazolin-2-yl}-N,N-dimethylmethanamine] | 0.25 to 1
Cc1ncnc(N2CCOc3ccc(-c4ccc5[nH]nc(N)c5c4)cc3C2)c1Cc1ccc(F)cc1 [Example 249, 5-(4-{5-[(4-fluorophenyl)methyl]-6-methylpyrimidin-4-yl}-2,3,4,5-tetrahydro-1,4-benzoxazepin-7-yl)-1H-indazol-3-amine] | 0.05 to 0.25
CCNc1nc2ncc(-c3ccc4c(c3)CN(c3ccncn3)CCO4)cc2[nH]1 [Example 230, N-ethyl-6-(4-pyrimidin-4-yl-2,3,4,5-tetrahydro-1,4-benzoxazepin-7-yl)-1H-imidazo[4,5-b]pyridin-2-amine] | 0.05 to 0.25
CC1(C)CCc2ncnc(N3CCOc4ccc(-c5cnc(N)c(S(=O)(=O)NC[C@H]6C[C@H]7CNC[C@H]7C6)c5)cc4C3)c2C1 [Example 384, 2-amino-5-[4-(6,6-dimethyl-5,6,7,8-tetrahydroquinazolin-4-yl)-2,3,4,5-tetrahydro-1,4-benzoxazepin-7-yl]-N-[(3aR,5r,6aS)-octahydrocyclopenta[c]pyrrol-5-ylmethyl]pyridine-3-sulfonamide] | 0.05 to 0.25
CSc1nc2ccc(-c3ccc4c(c3)CN(c3ccnc5ccccc35)CCO4)cc2[nH]1 [Example 207, 7-[2-(methylthio)-1H-benzimidazol-6-yl]-4-quinolin-4-yl-2,3,4,5-tetrahydro-1,4-benzoxazepine] | 0.05 to 0.25
COc1cc2c(N3CCOc4ccc(-c5ccc6nc(C)[nH]c6c5)cc4C3)ncnc2cc1OCc1ccccc1 [Example 10] | 0.25 to 1
Cc1nc2ccc(-c3ccc4c(c3)CN(c3cc(C(C)C)ncn3)CCO4)cc2[nH]1 [Example 59, 7-(2-methyl-1H-benzimidazol-6-yl)-4-[6-(1-methylethyl)pyrimidin-4-yl]-2,3,4,5-tetrahydro-1,4-benzoxazepine] | 0.05 to 0.25
COc1ccc2c(N3CCOc4ccc(-c5ccc6[nH]c(=O)[nH]c6c5)cc4C3)nc(C)nc2c1 [Example 296, 5-{4-[2-methyl-7-(methyloxy)quinazolin-4-yl]-2,3,4,5-tetrahydro-1,4-benzoxazepin-7-yl}-1,3-dihydro-2H-benzimidazol-2-one] | ≥ 2
c1ccc2c(N3CCOc4ccc(-c5ccc6nc(C7CCCCC7)[nH]c6c5)cc4C3)ccnc2c1 [Example 200, 7-(2-cyclohexyl-1H-benzimidazol-6-yl)-4-quinolin-4-yl-2,3,4,5-tetrahydro-1,4-benzoxazepine] | 1 to 2
CNC(=O)c1ccc(-c2ccc3c(c2)CN(c2ccnc4ccccc24)CCO3)cc1 [Example 239, N-methyl-4-(4-quinolin-4-yl-2,3,4,5-tetrahydro-1,4-benzoxazepin-7-yl)benzamide] | 0.05 to 0.25
Cc1nc2ncc(-c3ccc4c(c3)CN(c3ncnc5c3CC[C@H](C)C5)CCO4)cc2[nH]1 [Example 560, 7-(2-methyl-1H-imidazo[4,5-b]pyridin-6-yl)-4-[(7S)-7-methyl-5,6,7,8-tetrahydroquinazolin-4-yl]-2,3,4,5-tetrahydro-1,4-benzoxazepine] | 0.05 to 0.25
CNCc1nc2ncc(-c3ccc4c(c3)CN(c3ncnc5c3CC(C)(C)CC5)CCO4)cc2[nH]1 [Example 358, 1-{6-[4-(6,6-dimethyl-5,6,7,8-tetrahydroquinazolin-4-yl)-2,3,4,5-tetrahydro-1,4-benzoxazepin-7-yl]-1H-imidazo[4,5-b]pyridin-2-yl}-N-methylmethanamine] | 0.01 to 0.05

The remaining lines, values ahead:

IC50 [µM] | SMILES
≤ 0.01 | CC1(C)CCc2ncnc(N3CCOc4ccc(-c5cnc(N)c(S(=O)(=O)N6C[C@@H]7C[C@H]6CN7)c5)cc4C3)c2C1 [Example 436, 3-[(1S,4S)-2,5-diazabicyclo[2.2.1]hept-2-ylsulfonyl]-5-[4-(6,6-dimethyl-5,6,7,8-tetrahydroquinazolin-4-yl)-2,3,4,5-tetrahydro-1,4-benzoxazepin-7-yl]pyridin-2-amine]
≤ 0.01 | Cc1ncnc(N2CCOc3ccc(-c4cnc(N)nc4)cc3C2)c1Cc1ccc(F)cc1 [Example 153, 5-(4-{5-[(4-fluorophenyl)methyl]-6-methylpyrimidin-4-yl}-2,3,4,5-tetrahydro-1,4-benzoxazepin-7-yl)pyrimidin-2-amine]
≤ 0.01 | Cc1nc2ncc(-c3ccc4c(c3)CN(c3nc(CNCCF)nc5c3CC(C)(C)CC5)CCO4)cc2[nH]1 [Example 593, N-({6,6-dimethyl-4-[7-(2-methyl-1H-imidazo[4,5-b]pyridin-6-yl)-2,3-dihydro-1,4-benzoxazepin-4(5H)-yl]-5,6,7,8-tetrahydroquinazolin-2-yl}methyl)-2-fluoroethanamine]
0.01 to 0.05 | Cc1nc2ncc(-c3ccc4c(c3)CN(c3ncnc5c3CC[C@@H](C)C5)CCO4)cc2[nH]1 [Example 559, 7-(2-methyl-1H-imidazo[4,5-b]pyridin-6-yl)-4-[(7R)-7-methyl-5,6,7,8-tetrahydroquinazolin-4-yl]-2,3,4,5-tetrahydro-1,4-benzoxazepine]
0.01 to 0.05 | CN(C)Cc1nc2c(c(N3CCOc4ccc(-c5cnc6sc(N)nc6c5)cc4C3)n1)CC(C)(C)CC2 [Example 526, 6-(4-{2-[(dimethylamino)methyl]-6,6-dimethyl-5,6,7,8-tetrahydroquinazolin-4-yl}-2,3,4,5-tetrahydro-1,4-benzoxazepin-7-yl)[1,3]thiazolo[5,4-b]pyridin-2-amine]
≤ 0.01 | Cc1nc2ncc(-c3ccc4c(c3)CN(c3nc(CN)nc5c3CC(C)(C)CC5)CCO4)cc2[nH]1 [Example 352, 1-{6,6-dimethyl-4-[7-(2-methyl-1H-imidazo[4,5-b]pyridin-6-yl)-2,3-dihydro-1,4-benzoxazepin-4(5H)-yl]-5,6,7,8-tetrahydroquinazolin-2-yl}methanamine]
≤ 0.01 | COCc1nc2c(c(N3CCOc4ccc(-c5cnc6[nH]c(C)nc6c5)cc4C3)n1)CC(C)(C)CC2 [Example 508, 4-{6,6-dimethyl-2-[(methyloxy)methyl]-5,6,7,8-tetrahydroquinazolin-4-yl}-7-(2-methyl-3H-imidazo[4,5-b]pyridin-6-yl)-2,3,4,5-tetrahydro-1,4-benzoxazepine]
0.01 to 0.05 | Cc1nc(CN(C)C)nc(N2CCOc3ccc(-c4cnc5sc(N)nc5c4)cc3C2)c1-c1ccccc1 [Example 682, 6-(4-{2-[(dimethylamino)methyl]-6-methyl-5-phenylpyrimidin-4-yl}-2,3,4,5-tetrahydro-1,4-benzoxazepin-7-yl)[1,3]thiazolo[5,4-b]pyridin-2-amine]
0.01 to 0.05 | CC1(C)CCc2ncnc(N3CCOc4ccc(-c5cnc(N)c(S(=O)(=O)N6C[C@H]7C[C@@H]6CN7)c5)cc4C3)c2C1 [Example 435, 2-[(1R,4R)-2,5-diazabicyclo[2.2.1]hept-2-ylsulfonyl]-5-[4-(6,6-dimethyl-5,6,7,8-tetrahydroquinazolin-4-yl)-2,3,4,5-tetrahydro-1,4-benzoxazepin-7-yl]pyridin-2-amine]
≤ 0.01 | Cc1ncnc(N2CCOc3ccc(-c4ccc(C(=O)NCC(F)F)cc4)cc3C2)c1Cc1ccc(F)cc1 [Example 174, N-(2,2-difluoroethyl)-4-(4-{5-[(4-fluorophenyl)methyl]-6-methylpyrimidin-4-yl}-2,3,4,5-tetrahydro-1,4-benzoxazepin-7-yl)benzamide]
≤ 0.01 | COC(=O)Nc1nc2ncc(-c3ccc4c(c3)CN(c3ncnc(C)c3Cc3ccc(F)cc3)CCO4)cc2[nH]1 [Example 175, methyl [6-(4-{5-[(4-fluorophenyl)methyl]-6-methylpyrimidin-4-yl}-2,3,4,5-tetrahydro-1,4-benzoxazepin-7-yl)-1H-imidazo[4,5-b]pyridin-2-yl]carbamate]
≤ 0.01 | Cc1nc2c(c(N3CCOc4ccc(-c5cnc6sc(N)nc6c5)cc4C3)n1)CC(C)(C)CC2 [Example 669, 6-[4-(2,6,6-trimethyl-5,6,7,8-tetrahydroquinazolin-4-yl)-2,3,4,5-tetrahydro-1,4-benzoxazepin-7-yl][1,3]thiazolo[5,4-b]pyridin-2-amine]
0.01 to 0.05 | Cc1nc2ncc(-c3ccc4c(c3)CN(c3ncnc5c3CCC(C(F)(F)F)C5)CCO4)cc2[nH]1 (centres unmarked) [Example 566, 7-(2-methyl-1H-imidazo[4,5-b]pyridin-6-yl)-4-[7-(trifluoromethyl)-5,6,7,8-tetrahydroquinazolin-4-yl]-2,3,4,5-tetrahydro-1,4-benzoxazepine]
≤ 0.01 | CC[C@H]1CCc2c(ncnc2N2CCOc3ccc(-c4cnc5nc(N)[nH]c5c4)cc3C2)C1 [Example 537, 6-{4-[(7S)-7-ethyl-5,6,7,8-tetrahydroquinazolin-4-yl]-2,3,4,5-tetrahydro-1,4-benzoxazepin-7-yl}-1H-imidazo[4,5-b]pyridin-2-amine]
